Source: patent US9744164B2, “Neuroprotective polyphenol analogs” (Salk Institute for Biological Studies, priority 2011, dated 2017)

Test system: N9 microglial cells
Experiment: anti-inflammatory assay, LPS-induced microglial activation (NO release)
Format: cell-based, mouse
Conditions: bacterial lipopolysaccharide, derivative 1-10 μM, 24 hr
Description: Anti-inflammatory assay. Mouse N9 microglial cells plated in DME with 7.5% DFCS were treated with 10 μg/ml bacterial lipopolysaccharide (Sigma) alone or in the presence of the Fisetin derivatives (1-10 μM) or Fisetin (10 μM) as a positive control. After 24 hr the medium was removed, spun briefly to remove floating cells and 100 μl assayed for NO using 100 μl of the Griess Reagent (Sigma) in a 96 well plate. After incubation for 10 min at room temperature the absorbance at 550 nm was read on a microplate reader.
Three secondary screens allowed assessment of three key activities of Fisetin that are highly relevant to stroke, as well as other neurological disorders: maintenance of glutathione (GSH), the major endogenous cellular antioxidant, inhibition of LPS-induced microglial activation, an indicator of anti-inflammatory activity and PC12 cell differentiation, a measure of neurotrophic activity. All of these activities are relevant to the nerve cell loss seen in stroke (Gelderblom, et al., Stroke. 2009, 40 (5), 1849-1857; Pandya, et al., Cent. Nerv. Syst. Agents. Med. Chem. (2011) Apr. 27; Lewerenz, et al., J. Neurochem. (2010) 113 (2), 502-504). […] To assess GSH maintenance, total intracellular GSH levels after a 24 hr treatment with the compound both in the absence and presence of glutamate, an inducer of GSH loss and oxidative stress (Tan, et al., Curr. Top. Med. Chem. (2001) 1, 497-506; Maher, et al., Free Radical Research. (2006) 40 (10), 1105-1111) was measured Inhibition of LPS-induced microglial activation was determined by treating N9 mouse microglial cells with LPS alone and in the presence of the compounds and assaying NO release into the medium 24 hr later (Zheng, et al., Int. Immunopharmacol. (2008) 8, (3), 484-494). PC12 cell differentiation was determined by treating PC12 cells with the compounds and looking at neurite outgrowth after 24 hr. In all cases, Fisetin was used as a positive control (Sagara, et al., J. Neurochem. (2004) 90, 1144-1155).
The roles of the four different hydroxyl groups in the activity of Fisetin were studied. […] Cell viability was determined after 24 hr by the MTT assay. The ability to maintain GSH (GSH) was determined by treating HT22 cells with different doses of each derivative (1-10 μM) in the presence of 5 mM glutamate. After 24 hr cell extracts were prepared and analyzed for total GSH. Fisetin (10 μM) was used as a positive control. The ability to induce PC12 cell differentiation (PC12 diff'n) was determined by treating PC12 cells in N2 medium with different doses of each derivative (1-10 μM) for 24 hr. Differentiation was assessed by visual inspection with Fisetin (10 μM) as a positive control. Anti-inflammatory activity (microglia) was assessed in N9 microglial cells treated with bacterial lipopolysaccharide alone or in the presence different doses of each derivative (1-10 μM) for 24 hr. Fisetin was used as a positive control. TEAC values, a measure of direct antioxidant activity, were determined using the ABTS+ decolorization assay.

| SMILES | microglia (anti-inflammatory activity) |
| --- | --- |
| COc1cc(-c2cc(=O)c3cc(C)c(C)cc3o2)ccc1O [CMS-064, 2-(4-hydroxy-3-methoxyphenyl)-6,7-dimethyl-4H-chromen-4-one] | 41% |
| COc1cc(-c2cc(=O)c3cc(C)c(C)cc3o2)ccc1OCc1ccccc1 [CMS-058, 2-(4-(benzyloxy)-3-methoxyphenyl)-6,7-dimethyl-4H-chromen-4-one] | 83% |
| CCOc1ccc(-c2oc3c(ccc4ccccc43)c(=O)c2O)cc1OCC [CMS-036, 2-(3,4-diethoxyphenyl)-3-hydroxy-4H-benzo[h]chromen-4-one] | 13% |
| Cc1cc2oc(-c3ccc(N4CCCC4)cc3)cc(=O)c2cc1C [CMS-116, 6,7-dimethyl-2-(4-(pyrrolidin-1-yl)phenyl)-4H-chromen-4-one] | 2% |
| COc1ccc(/C=C/C(=O)c2cc(C)c(C)cc2O)cc1O [CMS-088, (E)-1-(2-hydroxy-4,5-dimethylphenyl)-3-(3-hydroxy-4-methoxyphenyl)prop-2-en-1-one] | 56% |
| COc1cc(-c2oc3cc(C)c(C)cc3c(=O)c2O)ccc1OCc1ccccc1 [CMS-059, 2-(4-(benzyloxy)-3-methoxyphenyl)-3-hydroxy-6,7-dimethyl-4H-chromen-4-one] | 14% |
| COc1cc(/C=C/C(=O)c2ccc3ccccc3c2O)ccc1OCc1ccccc1 [CMS-063, (E)-3-(4-(benzyloxy)-3-methoxyphenyl)-1-(1-hydroxynaphthalen-2-yl)prop-2-en-1-one] | 9% |
| COc1ccc(-c2oc3cc(C)c(C)cc3c(=O)c2O)cc1O [CMS-092, 3-hydroxy-2-(3-hydroxy-4-methoxyphenyl)-6,7-dimethyl-4H-chromen-4-one] | 72% |
| O=c1cc(-c2ccc(N3CCCC3)cc2)oc2c1ccc1ccccc12 [CMS-115, 2-(4-(pyrrolidin-1-yl)phenyl)-4H-benzo[h]chromen-4-one] | 23% |
| Cc1cc2oc(-c3ccc(O)cc3O)c(O)c(=O)c2cc1C [CMS-093, 2-(2,4-dihydroxyphenyl)-3-hydroxy-6,7-dimethyl-4H-chromen-4-one] | 0% |
| CCOc1ccc(-c2oc3cc(C)c(C)cc3c(=O)c2O)cc1OCC [CMS-025, 2-(3,4-diethoxyphenyl)-3-hydroxy-6,7-dimethyl-4H-chromen-4-one] | 11% |
| COc1cc(-c2oc3cc(C)c(C)cc3c(=O)c2O)ccc1O [CMS-069, 3-hydroxy-2-(4-hydroxy-3-methoxyphenyl)-6,7-dimethyl-4H-chromen-4-one] | 77% |
| CC(C)Oc1cc(-c2ccc(N(C)C)cc2)nc2ccccc12 [CMS-112, 4-isopropoxy-2-(4-dimethylaminophenyl)quinoline] | 71% |
| COc1cc(-c2oc3c(ccc4ccccc43)c(=O)c2O)ccc1O [CMS-070, 3-hydroxy-2-(4-hydroxy-3-methoxyphenyl)-4H-benzo[h]chromen-4-one] | 78% |
| Cc1cc2oc(-c3ccc(O)cc3O)cc(=O)c2cc1C [CMS-094, 2-(2,4-dihydroxyphenyl)-6,7-dimethyl-4H-chromen-4-one] | 5% |
| CC(C)Oc1cc(-c2ccc(N3CCCC3)cc2)nc2ccccc12 [CMS-113, 4-isopropoxy-2-(4-(pyrrolidin-1-yl)phenyl)quinoline] | 67% |
| COc1cc(-c2ccc(O)cc2O)nc2ccccc12 [CMS-083, 4-methoxy-2-(2,4-dihydroxyphenyl)quinoline] | 84% |
| COc1cc(-c2oc3c(ccc4ccccc43)c(=O)c2O)ccc1OCc1ccccc1 [CMS-065, 2-(4-(benzyloxy)-3-methoxyphenyl)-3-hydroxy-4H-benzo[h]chromen-4-one] | 88% |
| Cc1cc(O)c(C(=O)/C=C/c2ccc(O)cc2O)cc1C [CMS-087, (E)-3-(2,4-dihydroxyphenyl)-1-(2-hydroxy-4,5-dimethylphenyl)prop-2-en-1-one] | 53% |
| O=c1c(O)c(-c2ccc(N3CCCC3)cc2)oc2c1ccc1ccccc12 [CMS-114, 3-hydroxy-2-(4-(pyrrolidin-1-yl)phenyl)-4H-benzo[h]chromen-4-one] | 26% |
| CN(C)c1ccc(-c2cc(=O)c3ccc4ccccc4c3o2)cc1 [CMS-120, 2-(4-(dimethylamino)phenyl)-4H-benzo[h]chromen-4-one] | 35% |
| COc1cc(-c2ccc(N(C)C)cc2)nc2ccccc12 [CMS-109, 4-methoxy-2-(4-dimethylaminophenyl)quinoline] | 62% |
| CC(C)Oc1cc(-c2ccc(O)cc2O)nc2ccccc12 [CMS-084, 4-isopropoxy-2-(2,4-dihydroxyphenyl)quinoline] | 64% |
| COc1cc(-c2cc(OC)c3ccccc3n2)ccc1O [CMS-017, 4-methoxy-2-(4-hydroxy,3-methoxyphenyl)quinoline] | 90% |
| COc1cc(-c2ccccc2)nc2ccccc12 [CMS-021, 4-methoxy-2-phenylquinoline] | 6% |
| Cc1cc2oc(-c3ccc(N(C)C)cc3)cc(=O)c2cc1C [CMS-119, 2-(4-(dimethylamino)phenyl)-6,7-dimethyl-4H-chromen-4-one] | 8% |
| O=c1c(O)c(-c2ccc(O)c(O)c2)oc2ccc3ccccc3c12 [CMS-041, 3-(3,4-dihydroxyphenyl)-2-hydroxy-1H-benzo[f]chromen-1-one] | 87% |
| Cc1cc2oc(-c3ccc(O)c(O)c3)c(O)c(=O)c2cc1C [CMS-027, 2-(3,4-dihydroxyphenyl)-3-hydroxy-6,7-dimethyl-4H-chromen-4-one] | 82% |
